{
  "source": "patent US9452990B2",
  "about": "“Complement pathway modulators and uses thereof” (NOVARTIS AG, priority 2012, dated 2016)",
  "note": "Where a name gives a salt, the structure may show the parent alone.",
  "data": [
    {"target": "human complement factor B (CVF-Bb complex) (Homo sapiens (Human), UniProt P00751)", "test": "Human Complement Factor B ELISA Assay", "format": "biochemical", "details": "not given", "procedure": "(§1) Human Complement Factor B ELISA Assay\n(§2) CVF-Bb complex prepared from purified cobra venom factor (1 μM), recombinant human complement factor B (expressed in drosophila cells and purified using standard methods) and human complement factor D (expressed in E. Coli, refolded and purified using standard methods). CVF-Bb complex at 3 nM concentration was incubated with test compound at various concentrations for 1 hour at room temperature in PBS pH 7.4 containing 10 mM MgCl2 and 0.05% (w/v) CHAPS. Human complement C3 substrate purified from plasma was added to a final concentration of 1 μM. After 1 hour incubation at room temperature, the enzyme reaction was stopped by addition of a cocktail of concentrated pan-protease inhibitors. The product of the reaction, C3a, was quantified by means of an enzyme-linked-immunosorbent assay. IC50 values were calculated from percentage of inhibition of CVF-Bb activity as a function of test compound concentration.", "units": {"IC50": "nM"}, "values": [
      {"compound": "COc1cc2c(N)nc(N3CCN(C(=O)C[C@@H](N)c4ccoc4)CC3)nc2c(F)c1OC", "note": "[Example 35, (R)-3-Amino-1-[4-(4-amino-8-fluoro-6,7-dimethoxy-quinazolin-2-yl)piperazin-1-yl]-3-furan-3-yl-propan-1-one hydrochloride]", "IC50": 310},
      {"compound": "COc1cc2c(N)nc(N3CCN(C(=O)C[C@@H](N)Cc4ccccc4)C[C@@H]3C)nc2c(F)c1OC", "note": "[Example 62, (S)-3-Amino-1-[(S)-4-(4-amino-8-fluoro-6,7-dimethoxy-quinazolin-2-yl)-3-methyl-piperazin-1-yl]-4-phenyl-butan-1-one hydrochloride]", "IC50": 2250},
      {"compound": "COc1cc2c(N)nc(N3CCN(C(=O)C[C@@H](N)c4ccc(C(F)F)cc4)CC3)nc2c(F)c1OC", "note": "[Example 53, (R)-3-Amino-1-[4-(4-amino-8-fluoro-6,7-dimethoxy-quinazolin-2-yl)piperazin-1-yl]-3-(4-difluoromethyl-phenyl)-propan-1-one hydrochloride]", "IC50": 50},
      {"compound": "COc1cc2c(N)nc(N3CCN(C(=O)C[C@@H](N)c4ccco4)CC3)nc2c(F)c1OC", "note": "[Example 34, (R)-3-Amino-1-[4-(4-amino-8-fluoro-6,7-dimethoxy-quinazolin-2-yl)-piperazin-1-yl]-3-furan-2-yl-propan-1-one hydrochloride]", "IC50": 90},
      {"compound": "COc1cc2c(N)nc(N3CCN(C(=O)C[C@@H](N)c4ccc(F)cc4F)CC3)nc2c(F)c1OC", "note": "[Example 50, (R)-3-Amino-1-[4-(4-amino-8-fluoro-6,7-dimethoxy-quinazolin-2-yl)-piperazin-1-yl]-3-(2,4-difluoro-phenyl)-propan-1-one hydrochloride]", "IC50": 450},
      {"compound": "C#Cc1ccc([C@H](N)CC(=O)N2CCN(c3nc(N)c4cc(OC)c(OC)c(F)c4n3)CC2)cc1", "note": "[Example 42, (R)-3-Amino-1-[4-(4-amino-8-fluoro-6,7-dimethoxy-quinazolin-2-yl)-piperazin-1-yl]-3-(4-ethynyl-phenyl)-propan-1-one hydrochloride]", "IC50": 510},
      {"compound": "CCC[C@H]1CN(C(=O)C[C@@H](N)c2ccc(C(F)(F)F)cc2)CCN1c1nc(N)c2cc(OC)c(OC)c(F)c2n1", "note": "[Example 68, (R)-3-Amino-1-[(S)-4-(4-amino-8-fluoro-6,7-dimethoxy-quinazolin-2-yl)-3-propyl-piperazin-1-yl]-3-(4-trifluoromethyl-phenyl)-propan-1-one hydrochloride]", "IC50": 60},
      {"compound": "COc1cc2c(N)nc(N3CCN(C(=O)C[C@@H](N)c4cccs4)CC3)nc2c(F)c1OC", "note": "[Example 36, (R)-3-Amino-1-[4-(4-amino-8-fluoro-6,7-dimethoxy-quinazolin-2-yl)-piperazin-1-yl]-3-thiophen-2-yl-propan-1-one hydrochloride]", "IC50": 190},
      {"compound": "COc1cc2c(N)nc(N3CCN(C(=O)C[C@@H](N)Cc4ccncc4)C[C@@H]3C)nc2c(F)c1OC", "note": "[Example 63, (S)-3-Amino-1-[(S)-4-(4-amino-8-fluoro-6,7-dimethoxy-quinazolin-2-yl)-3-methyl-piperazin-1-yl]-4-pyridin-4-yl-butan-1-one hydrochloride]", "IC50": 7320}
    ]},
    {"target": "human complement factor B (CVF-Bb complex) (Homo sapiens (Human), UniProt P00751)", "test": "Human Complement Factor B ELISA Assay", "format": "biochemical", "details": "CVF-Bb complex 3 nM, 1 hour preincubation with compound at room temperature, human C3 substrate 1 μM, C3a quantified by ELISA; read-out: Factor B IC50", "procedure": "as §1, §2", "units": {"IC50": "nM"}, "values": [
      {"compound": "CN[C@H](CC(=O)N1CCN(c2nc(N)c3cc(OC)c(OC)c(F)c3n2)CC1)C1CCCCC1", "note": "[Example 78, (R)-1-(4-(4-amino-8-fluoro-6,7-dimethoxyquinazolin-2-yl)piperazin-1-yl)-3-cyclohexyl-3-(methylamino)propan-1-one]", "IC50": 80},
      {"compound": "CCC[C@H]1CN(C(=O)c2cc3cc(F)ccc3[nH]2)CCN1c1nc(N)c2cc(OC)c(OC)c(F)c2n1", "note": "[Example 27, [(S)-4-(4-Amino-8-fluoro-6,7-dimethoxy-quinazolin-2-yl)-3-propyl-piperazin-1-yl]-(5-fluoro-1H-indol-2-yl)-methanone]", "IC50": 280},
      {"compound": "[2H]C([2H])([2H])N[C@H](CC(=O)N1CCN(c2nc(N)c3cc(OC)c(OC)c(F)c3n2)CC1)c1ccc(F)cc1", "note": "[Example 80, (R)-1-(4-(4-Amino-8-fluoro-6,7-dimethoxyquinazolin-2-yl)piperazin-1-yl)-3-(4-fluorophenyl)-3-(d^3-methylamino)propan-1-one hydrochloride]", "IC50": 6},
      {"compound": "COc1cc2c(N)nc(N3CCN(C(=O)CC4NCc5ccccc54)CC3)nc2c(F)c1OC", "note": "(stereo not drawn) [Example 112, 1-[4-(4-Amino-8-fluoro-6,7-dimethoxy-quinazolin-2-yl)-piperazin-1-yl]-2-(2,3-dihydro-1H-isoindol-1-yl)-ethanone]", "IC50": 350},
      {"compound": "CCC[C@H]1CN(C(=O)c2cc3cc(C#N)ccc3[nH]2)CCN1c1nc(N)c2cc(OC)c(OC)c(F)c2n1", "note": "[Example 26, 2-[(S)-4-(4-Amino-8-fluoro-6,7-dimethoxy-quinazolin-2-yl)-3-propyl-piperazine-1-carbonyl]-1H-indole-5-carbonitrile]", "IC50": 11},
      {"compound": "COc1cc2c(N)nc(N3CCN(C(=O)c4cc5ccccc5[nH]4)CC3)nc2c(F)c1OC", "note": "[Example 17, [4-(4-Amino-8-fluoro-6,7-dimethoxy-quinazolin-2-yl)-piperazin-1-yl]-(1H-indol-2-yl)-methanone]", "IC50": 340},
      {"compound": "COc1cc2c(N)nc(N3CCN(C(=O)C[C@@H](NC(CF)CF)c4ccc(F)cc4)CC3)nc2c(F)c1OC", "note": "[Example 87, (R)-1-(4-(4-amino-8-fluoro-6,7-dimethoxyquinazolin-2-yl)piperazin-1-yl)-3-(1,3-difluoropropan-2-ylamino)-3-(4-fluorophenyl)propan-1-one]", "IC50": 40},
      {"compound": "COc1cc2c(N)nc(N3CCN(C(=O)C[C@@H](N)c4cccc(C)c4)CC3)nc2c(F)c1OC", "note": "[Example 40, (R)-3-Amino-1-[4-(4-amino-8-fluoro-6,7-dimethoxy-quinazolin-2-yl)-piperazin-1-yl]-3-m-tolyl-propan-1-one]", "IC50": 220},
      {"compound": "COc1cc2c(N)nc(N3CCN(C(=O)c4cc5c(OC)cccc5[nH]4)CC3)nc2c(F)c1OC", "note": "[Example 20, [4-(4-Amino-8-fluoro-6,7-dimethoxy-quinazolin-2-yl)-piperazin-1-yl]-(4-methoxy-1H-indol-2-yl)-methanone]", "IC50": 9630},
      {"compound": "COc1cc2c(N)nc(N3CCN(C(=O)C[C@@H](N)C4CCCC4)CC3)nc2c(F)c1OC", "note": "[Example 32, (R)-3-Amino-1-[4-(4-amino-8-fluoro-6,7-dimethoxy-quinazolin-2-yl)-piperazin-1-yl]-3-cyclopentyl-propan-1-one]", "IC50": 100},
      {"compound": "COc1cc2c(N)nc(N3CCN(C(=O)/C=C/c4ccc(C#N)cc4)C[C@@H]3C)nc2c(F)c1OC", "note": "[Example 7, 4-{(E)-3-[(S)-4-(4-Amino-8-fluoro-6,7-dimethoxy-quinazolin-2-yl)-3-methyl-piperazin-1-yl]-3-oxo-propenyl}-benzonitrile]", "IC50": 20},
      {"compound": "COc1cc2c(N)nc(N3CCN(C(=O)C[C@@H](NC(C)C)c4ccc(F)cc4)CC3)nc2c(F)c1OC", "note": "[Example 89, (R)-1-[4-(4-Amino-8-fluoro-6,7-dimethoxy-quinazolin-2-yl)-piperazin-1-yl]-3-(4-fluoro-phenyl)-3-isopropylamino-propan-1-one]", "IC50": 30},
      {"compound": "COc1cc2nc(N3CCN(C(=O)/C=C/C4CC4)CC3)nc(N)c2c(Cl)c1OC", "note": "[Example 14, (E)-1-(4-(4-Amino-5-chloro-6,7-dimethoxyquinazolin-2-yl)piperazin-1-yl)-3-cyclopropylprop-2-en-1-one]", "IC50": 3290},
      {"compound": "COc1cc2c(N)nc(N3CCN(C(=O)C[C@@H]4CCCNC4)C[C@@H]3c3ccccc3)nc2c(F)c1OC", "note": "[Example 122, 1-[(S)-4-(4-Amino-8-fluoro-6,7-dimethoxy-quinazolin-2-yl)-3-phenyl-piperazin-1-yl]-2-(S)-piperidin-3-yl-ethanone]", "IC50": 200},
      {"compound": "COc1cc2c(N)nc(N3CCN(C(=O)C[C@@H](CN)c4ccccc4)CC3)nc2c(F)c1OC", "note": "[Example 129, (R)-4-Amino-1-[4-(4-amino-8-fluoro-6,7-dimethoxy-quinazolin-2-yl)-piperazin-1-yl]-3-phenyl-butan-1-one]", "IC50": 710},
      {"compound": "COCCC1CN(C(=O)/C=C/C2CC2)CCN1c1nc(N)c2cc(OC)c(OC)c(F)c2n1", "note": "(stereo not drawn) [Example 4, (E)-1-[4-(4-Amino-8-fluoro-6,7-dimethoxy-quinazolin-2-yl)-3-(2-methoxy-ethyl)-piperazin-1-yl]-3-cyclopropyl-propenone]", "IC50": 16500},
      {"compound": "COc1cc2c(N)nc(N3CCN(C(=O)/C=C/C4CC4)CC3)nc2c(C#N)c1OC", "note": "[Example 5, 4-Amino-2-[4-((E)-3-cyclopropyl-acryloyl)-piperazin-1-yl]-6,7-dimethoxy-quinazoline-8-carbonitrile]", "IC50": 440},
      {"compound": "CC[C@H]1CN(C(=O)C[C@@H]2CCCN2)CCN1c1nc(N)c2cc(OC)c(OC)c(F)c2n1", "note": "[Example 116, 1-[(S)-4-(4-Amino-8-fluoro-6,7-dimethoxy-quinazolin-2-yl)-3-ethyl-piperazin-1-yl]-2-(S)-pyrrolidin-2-yl-ethanone]", "IC50": 540},
      {"compound": "COc1cc2c(N)nc(N3CCN(C(=O)[C@@H]4CCc5ccccc5[C@@H]4N)C[C@@H]3c3ccccc3)nc2c(F)c1OC", "note": "[Example 107, [(S)-4-(4-Amino-8-fluoro-6,7-dimethoxy-quinazolin-2-yl)-3-phenyl-piperazin-1-yl]-((1R,2R)-1-amino-1,2,3,4-tetrahydro-naphthalen-2-yl)-methanone]", "IC50": 240},
      {"compound": "COc1cc2c(N)nc(N3CCN(C(=O)c4cc5cc(F)ccc5[nH]4)CC3)nc2c(F)c1OC", "note": "[Example 21, [4-(4-Amino-8-fluoro-6,7-dimethoxy-quinazolin-2-yl)-piperazin-1-yl]-(5-fluoro-1H-indol-2-yl)-methanone]", "IC50": 70},
      {"compound": "COc1cc2c(N)nc(N3CCN(C(=O)C[C@H](c4ccc(F)cc4)N(C)C)CC3)nc2c(F)c1OC", "note": "[Example 86]", "IC50": 40}
    ]}
  ]
}
